Experimental data: patent US10758549B2, “Compositions of obeticholic acid and methods of use” (Intercept Pharmaceuticals, Inc., priority 2015, dated 2020)

Columns and labels:
Surface area by BET = assay type: physicochemical
Protocol: The impact of jet-milling on API particle size and surface area is detailed in Table 4-1 and Table 4-2, respectively. Surface area was tested per a BET (Brunauer, Emmett, and Teller theory). The BET method for analyzing surface area is based on adsorption of gas on a surface. The amount of gas adsorbed at a given pressure allows a determination of the surface area.

patients with PBC = experiment: Example 9: randomized double-blind placebo-controlled 12-month trial of OCA in PBC; assay type: in vivo, human; details: for Patients who achieved response (ALP<1.67×ULN, ALP reduction ≥15%, TB≤ULN) at Month 6 / Patients who achieved response (ALP<1.67×ULN, ALP reduction ≥15%, TB≤ULN) at Month 12: ITT; for patients who experienced an increase in ALP: 12 months (placebo 36%); for Response at Month 6 [1] / Response at Month 12 [1]: Table 25 analysis; for ALP < 1.67 × ULN and Decrease ≥ 15% at Month 6 [3] / ALP < 1.67 × ULN and Decrease ≥ 15% at Month 12 [3] / ALP < 1.67 × ULN at Month 6 [3] / ALP < 1.67 × ULN at Month 12 [3] / Decrease in ALP ≥ 15% at Month 6 [3] / Decrease in ALP ≥ 15% at Month 12 [3]: patients with Baseline ALP ≥ 1.67 × ULN but < 2.0 × ULN; for ALP < 2.0 × ULN and Decrease ≥ 40% at Month 6 [2] / ALP < 2.0 × ULN and Decrease ≥ 40% at Month 12 [2] / ALP < 2.0 × ULN at Month 6 [2] / ALP < 2.0 × ULN at Month 12 [2] / Decrease in ALP ≥ 40% at Month 6 [2] / Decrease in ALP ≥ 40% at Month 12 [2]: patients with Baseline ALP ≥ 2.0 × ULN
Protocol: This example describes a randomized, double-blind, placebo-controlled, parallel-group, 12-month trial evaluating OCA in patients with PBC as a monotherapy.
Patients with inflammatory bowel disease or who had undergone gastric bypass procedures were excluded (gastric lap band was acceptable). • Medical conditions that could cause non-hepatic increases in ALP (e.g., Paget's disease)
ALP and TB composite response criteria were measured; a patient was designated as a responder if all three of the following conditions were met: • A value of ALP<1.67×ULN • ALP reduction from baseline ? 15% • A value of TB<ULN
The absolute and percent change from Baseline in ALP, gamma-glutamyl transferase (GGT), alanine aminotransferase (ALT), AST, total bilirubin, conjugated (direct) bilirubin, albumin, prothrombin time and international normalized ratio (INR) at all-time points was measured. The percentage of patients with a decrease in ALP of ? 10%, ? 15%, ? 20%, and ? 40% from Baseline or ? ULN at month 12 was measured. The percentage of patients achieving the following biochemical response criteria was also measured: • ALP ? 3×ULN and AST ? 2×ULN and bilirubin ? ULN ((Corpechot 2008);
Bile acid sequestrant (BAS) concomitant exposure. The primary analysis set used for all efficacy analyses, along with the summarization of disposition along with demographics and baseline characteristics, was the ‘Intent-to-Treat’ (ITT) analysis set. This analysis set included all randomized patients who received at least one dose of blinded study drug. When utilizing this analysis set, patients were analyzed according to the treatment group that they were randomized to regardless of the actual treatment received. It should be noted that all but one randomized patient received at least one dose of blinded study drug.
A Cochran-Mantel-Haenszel (CMH) test which adjusted for both randomization stratification variables as described above, was used for pre-specified analysis. In tandem with the CMH test, a Breslow-Day test was also conducted, to test for the homogeneity of the treatment effect across the different randomization strata.

patients with NASH = experiment: Example 12: double-blind study of daily 25 mg OCA in NASH, high risk subgroup; assay type: in vivo, human; details: week 72, 25 mg OCA daily
Protocol: This example describes a clinical, double-blind study examining the effect of daily 25 mg OCA on nonalcoholic steatohepatitis (NASH). OCA lead to biopsy proven improvements in liver fibrosis. Patients with NASH who have elevated NAFLD activity scores (NAS) and fibrosis are at a higher risk of progression to cirrhosis and liver related mortality.
The high risk subgroup was defined as patients with a baseline NAS≥4, baseline fibrosis stage 2 or 3 or baseline fibrosis stage 1 with a comorbidity (type 2 diabetes, BMI≥30 kg/m^2 or ALT≥60 U/L) (OCA n=114; Placebo n=112). The Fibrosis-4 (FIB-4), the aspartate transaminase to platelet ratio (APRI), and the NAFLD fibrosis score (NFS) were all examined between baseline through 72 weeks of treatment and for an additional 24 weeks of follow up.

[1] = normal hepatic function, Fixed; cited from earlier work
[2] = target: T1, farnesoid X receptor (FXR) (Homo sapiens, UniProt Q96RI1); details: FXR agonism; cited from earlier work
T1 sequence (Q96RI1 1-486): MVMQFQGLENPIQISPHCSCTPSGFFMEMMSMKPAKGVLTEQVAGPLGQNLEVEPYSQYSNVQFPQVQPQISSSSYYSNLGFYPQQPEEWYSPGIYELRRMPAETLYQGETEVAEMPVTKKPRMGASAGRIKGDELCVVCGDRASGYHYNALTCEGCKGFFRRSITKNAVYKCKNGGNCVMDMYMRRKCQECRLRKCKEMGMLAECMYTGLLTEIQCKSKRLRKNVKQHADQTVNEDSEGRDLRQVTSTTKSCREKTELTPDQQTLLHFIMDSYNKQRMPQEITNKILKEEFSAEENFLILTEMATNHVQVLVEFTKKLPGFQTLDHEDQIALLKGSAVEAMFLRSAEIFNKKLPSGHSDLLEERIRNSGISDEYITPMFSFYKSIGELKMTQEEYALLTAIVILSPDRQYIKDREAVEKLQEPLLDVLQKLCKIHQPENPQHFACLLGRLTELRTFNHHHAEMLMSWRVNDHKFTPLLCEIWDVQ

[3] = 10 mg OCA (N = 73), listed as Obeticholic acid

## CC[C@H]1[C@@H](O)[C@@H]2[C@H](CC[C@]3(C)[C@@H]([C@H](C)CCC(=O)O)CC[C@@H]23)[C@@]2(C)CC[C@@H](O)C[C@@H]12 [OCA, 3α,7α-dihydroxy-6α-ethyl-5β-cholan-24-oic acid]
Surface area by BET
  surface area increase after jet-milling: approximately 3 fold
Patients with PBC; 10 mg OCA
  ALP Absolute Change from Baseline to Month 12 (U/L), Mean: −11|7.1 U/L
  ALP Absolute Change from Baseline to Month 12 (U/L), Median: −99.0 U/L
  ALP Percentage Change from Baseline to Month 12 (%), Mean: −36.4%
  ALP Percentage Change from Baseline to Month 12 (%), Median: −38.3%
  Month 12 ALP Concentration (U/L), Mean: 191.2 U/L
  Month 12 ALP Concentration (U/L), Median: 181.7 U/L
  Month 12 ALP Concentration (×ULN), Mean: 1.606 ×ULN
  Month 12 ALP Concentration (×ULN), Median: 1.527 ×ULN
  ALP < 1.67 × ULN and Decrease ≥ 15% at Month 6 [3]: (88.9%)
  ALP < 1.67 × ULN and Decrease ≥ 15% at Month 12 [3]: (77.8%)
  ALP < 1.67 × ULN at Month 6 [3]: (94.4%)
  ALP < 1.67 × ULN at Month 12 [3]: (88.9%)
  Decrease in ALP ≥ 15% at Month 6 [3]: (88.9%)
  Decrease in ALP ≥ 15% at Month 12 [3]: (77.8%)
  ALP < 2.0 × ULN and Decrease ≥ 40% at Month 6 [2]: (21.4%)
  ALP < 2.0 × ULN and Decrease ≥ 40% at Month 12 [2]: (28.6%)
  ALP < 2.0 × ULN at Month 6 [2]: (71.4%)
  ALP < 2.0 × ULN at Month 12 [2]: (69.1%)
  Decrease in ALP ≥ 40% at Month 6 [2]: (23.8%)
  Decrease in ALP ≥ 40% at Month 12 [2]: (31.0%)
Patients with PBC; 10 mg OCA (N = 73)
  Patients with ALP < 1.67 × ULN at Month 12: (54.8%)
  Patients with Decrease in ALP ≥ 10% at Month 12: (83.6%)
  Patients with Decrease in ALP ≥ 15% at Month 12: (78.1%)
  Patients with Decrease in ALP ≥ 20% at Month 12: (74.0%)
  Patients with Decrease in ALP ≥ 40% at Month 12: (34.3%)
  Patients who achieved response (ALP<1.67×ULN, ALP reduction ≥15%, TB≤ULN) at Month 6: 37 (50.7%)
Patients with PBC; [3]
  Patients who achieved response (ALP<1.67×ULN, ALP reduction ≥15%, TB≤ULN) at Month 6: 37 (51) %
  Patients who achieved response (ALP<1.67×ULN, ALP reduction ≥15%, TB≤ULN) at Month 12: 34 (47) %
Patients with PBC; 10 mg OCA (N = 73), listed as obeticholic acid
  Patients with Decrease in ALP ≥ 15% at Month 12: 77%
Patients with PBC; 10 mg obeticholic acid
  patients who experienced an increase in ALP: 2%
Patients with PBC; 33 patients titrated from 5 mg to 10 mg at Month 6
  up-titrated patients who met the composite endpoint: 39%
Patients with PBC; OCA Titration
  ALP Absolute Change from Baseline to Month 12 (U/L), Median: −85.5 U/L
  ALP Percentage Change from Baseline to Month 12 (%), Mean: −30.5%
  ALP Percentage Change from Baseline to Month 12 (%), Median: −31.5%
  Month 12 ALP Concentration (U/L), Mean: 219.5 U/L
  Month 12 ALP Concentration (U/L), Median: 196.6 U/L
  Month 12 ALP Concentration (×ULN), Mean: 1.851 ×ULN
  Month 12 ALP Concentration (×ULN), Median: 1.661 ×ULN
  ALP < 1.67 × ULN and Decrease ≥ 15% at Month 6 [3]: (76.9%)
  ALP < 1.67 × ULN and Decrease ≥ 15% at Month 12 [3]: (76.9%)
  ALP < 1.67 × ULN at Month 6 [3]: (76.9%)
  ALP < 1.67 × ULN at Month 12 [3]: (84.6%)
  Decrease in ALP ≥ 15% at Month 6 [3]: (84.6%)
  Decrease in ALP ≥ 15% at Month 12 [3]: (76.9%)
  ALP < 2.0 × ULN and Decrease ≥ 40% at Month 6 [2]: (23.4%)
  ALP < 2.0 × ULN and Decrease ≥ 40% at Month 12 [2]: (27.7%)
  ALP < 2.0 × ULN at Month 6 [2]: (51.1%)
  ALP < 2.0 × ULN at Month 12 [2]: (59.6%)
  Decrease in ALP ≥ 40% at Month 6 [2]: (27.7%)
  Decrease in ALP ≥ 40% at Month 12 [2]: (34.0%)
Patients with PBC; OCA Titration (N = 70)
  Patients with ALP < 1.67 × ULN at Month 12: (47.1%)
  Patients with Decrease in ALP ≥ 10% at Month 12: (78.6%)
  Patients with Decrease in ALP ≥ 15% at Month 12: (77.1%)
  Patients with Decrease in ALP ≥ 20% at Month 12: (70.0%)
  Patients with Decrease in ALP ≥ 40% at Month 12: (30.0%)
Patients with PBC; OCA Titration (N = 70), listed as obeticholic acid
  Patients with Decrease in ALP ≥ 15% at Month 12: 77%
Patients with PBC; OCA Titration, 5 mg (N = 70)
  Patients who achieved response (ALP<1.67×ULN, ALP reduction ≥15%, TB≤ULN) at Month 6: 24 (34.3%)
Patients with PBC; OCA Titration, 5 mg (N = 70), listed as Obeticholic acid
  Patients who achieved response (ALP<1.67×ULN, ALP reduction ≥15%, TB≤ULN) at Month 6: 24 (34) %
Patients with PBC; OCA Titration, 5 mg or 10 mg (N = 70), listed as Obeticholic acid
  Patients who achieved response (ALP<1.67×ULN, ALP reduction ≥15%, TB≤ULN) at Month 12: 32 (46) %
Patients with PBC; 10 mg OCA (N = 60)
  Response at Month 6 [1]: (41.7%)
  Response at Month 12 [1]: (43.3%)
Patients with PBC; OCA Titration (N = 60)
  Response at Month 6 [1]: (35.0%)
  Response at Month 12 [1]: (38.3%)
Patients with PBC; continued dosing of 5 mg QD, month 6 to month 12
  responders who became non-responders: 19%
Patients with PBC; titration obeticholic acid
  patients who experienced an increase in ALP: 5%
Patients with NASH; 95% CI=[−0.32, −0.15]
  APRI OCA-Placebo LS Mean change: −0.23
Patients with NASH; 95% CI=[−0.45, −0.10]
  NFS OCA-Placebo LS Mean change: −0.28
Patients with NASH; 95% CI=[−0.47, −0.19]
  FIB-4 OCA-Placebo LS Mean change: −0.33
[1]
  t13: OCA transport rate from sinusoidal space to liver: 1.62 h⁻¹
[2]
  potency compared to CDCA: approximately 100 fold
